Results: patent US20130230486A1, “COMPOSITIONS AND METHODS TO INDUCE TARGETED APOPTOSIS” (priority 2010, published 2013)

Experiments:
[1] = test system: PTPN13; assay: PTPN13 mRNA expression by quantitative PCR in lung fibroblasts; assay type: cell-based, human; details: NHLF, FHLF and MRC5, IFN-γ 50 U/ml, 6 hours
Description: (§1) To assess the effects of these cytokines on PTPN13 expression, non-diseased normal human lung fibroblasts (NHLF), fibrotic human lung fibroblasts (FHLF) and a fetal lung fibroblast cell line, MRC5 cells, were treated with TNF-α (10/ng/ml), IFN-γ (50 U/ml) or with both cytokines for 6 hours. PTPN13 expression was measured by quantitative PCR (FIG. 2A). The primary lung fibroblasts from normal and fibrotic lung had equivalent levels of PTPN13 expression to the MRC5 lung fibroblast cell line. […] Treatment with TNF-α alone caused a 40% decrease in PTPN13 expression. Combined exposure to TNF-α and IFN-γ decreased PTPN13 mRNA expression by 80%. Protein lysates from normal, fibrotic and MRC5 fibroblasts treated for 36 hours with TNF-α (10/ng/ml), IFN-γ (50 U/ml) or with both cytokines were then analyzed for PTPN13 expression. […]
FIG. 2: TNF-α and IFN-γ decrease PTPN13 expression. […] A. Top panel is a quantitative RT-PCR analysis of PTPN13 mRNA lower panel is a Western blot analysis for PTPN13 protein.B. Time course of PTPN13 mRNA expression following TNF-a (10 ng/ml) and IFN-g (50 U/ml) treatment. […] Caspase-8 was measured using a fluorescence based assay.
Total RNA was obtained from 1×10^6 MRC5 cells using the Qiagen RNA Miniprep Kit (Qiagen) following the manufacturer's instructions. […] The fluorescence values of the threshold cycles were collected and normalized to GAPDH. […]

[2] = test system: PTPN13; assay: PTPN13 protein expression by Western blot in lung fibroblasts; assay type: cell-based, human; details: normal, fibrotic and MRC5 fibroblasts; TNF-α 10 ng/ml, IFN-γ 50 U/ml; 36 hours
Description: as §1
In one exemplary method, to assess whether PTPN13 expression prevents Fas-induced apoptosis, PTPN13 expression was knocked-down using siRNA. […] Apoptosis was assayed by quantifying activation of caspase-3 and caspase-8 (FIG. 3C).
FIG. 3: Decreased PTPN13 expression sensitizes fibroblasts to Fas-induced apoptosis. […] PTPN13 expression was quantified by western blot analysis and densitometry was performed. […] Fas activating antibody (250 ng/ml) (Fas activating antibody) or PBS (unstimulated) was added for 2 hours before analyzing Caspase-8 activation by a fluorescence-based assay. c. […]

[3] = test system: murine model of fibrosis; assay: Bleomycin murine model of fibrosis, mortality; assay type: in vivo, mouse; details: 2.5 U/kg bleomycin into the trachea
Description: To assess the effect of PTPN13 on development of fibrosis in vivo, we used a murine model of fibrosis in a PTPN13-/- mouse. The PTPN13-/- mouse has been characterized by Grusby to have abnormal STAT4 signaling which leads to augmented skewing toward TH1 or TH2 phenotypes. 2.5 U/kg bleomycin was administered directly into the tracheas of PTPN13-/- mice along with wildtype controls. […] Due to drastic weight decreases in the wildtype mice, two weeks was chosen as the end time point. […] Of the 20 wildtype mice treated with bleomycin, 11 (55%) died before two weeks as compared to the PTPN13-/- mice where three of the 20 (15%) died. Saline had no effect on mortality. Then static compliance was measured. The saline treated wildtype and PTPN13-/- mice had similar values of static compliance. […] Collagen content was measured in the lung using a hydroxyproline assay. […] To determine a possible cause for the decreased static compliance in the PTPN13-/- mice, we also measured other markers of lung disease, such as cellular infiltration and capillary leak. We measured the cellularity of the bronchoalveolar fluid (BALF). […] Capillary leak was determined by albumin present in the BALF (FIG. 6F). […] To validate these findings, stereology was performed on lung sections to quantify presence of collagen and diseased areas. […] Percentage of diseased lung was also measured by stereology. […]

Substance | PTPN13 mRNA expression compared to untreated cells (in words) [1] | PTPN13 protein expression (Western blot) [2] | decrease in PTPN13 mRNA expression ([1]; TNF-α 10 ng/ml, compared to untreated cells) | mice that died before two weeks ([3]; PTPN13-/- mice, three of 20) | mice that died before two weeks ([3]; wildtype mice, 11 of 20)
IFN-γ: Recombinant human IFN-γ purchased from R&D Systems | minimal decrease | not decreased | – | – | –
TNF-α | – | decreased | 40% | – | –
bleomycin | – | – | – | 15% | 55%
